Source: patent US20170114021A1, “HALOGEN-SUBSTITUTED COMPOUNDS” (priority 2014, published 2017)

Key:
[1] = tested on: Spodoptera frugiperda; assay: Spodoptera frugiperda spray test (SPODFR); assay type: in vivo; conditions: application rate 100 g/ha; maize leaf discs; after 7 days
Procedure: Spodoptera frugiperda—Spray Test (SPODFR)
Solvent: 78.0 parts by weight of acetone • • 1.5 parts by weight of dimethylformamide Emulsifier: alkylaryl polyglycol ether
(§1) To produce a suitable preparation of active compound, 1 part by weight of active compound is dissolved using the specified parts by weight of solvent and made up with water containing an emulsifier concentration of 1000 ppm until the desired concentration is attained. To produce further test concentrations, the preparation is diluted with emulsifier-containing water.
Leaf discs of maize (Zea mays) are sprayed with an active compound preparation of the desired concentration and, after drying, populated with caterpillars of the armyworm (Spodoptera frugiperda).
After 7 days, efficacy in % is determined. 100% means that all the caterpillars have been killed; 0% means that no caterpillars have been killed.

[2] = log P by HPLC on reversed-phase column (C18), EEC Directive 79/831 Annex V.A8; assay type: physicochemical; conditions: reversed-phase C18 HPLC column; HPLC, C18, acetonitrile/water with formic acid gradient; read-out: log P
Procedure: ^a) Unless indicated otherwise, the following method was used to determine the log P values and masses: The determination of the given log P values was carried out in accordance with EEC Directive 79/831 Annex V.A8 by HPLC (High Performance Liquid Chromatography) on a reversed-phase column (C18). Agilent 1100 LC system; 50*4.6 Zorbax Eclipse Plus C18 1.8 micron; mobile phase A: acetonitrile (0.1% formic acid); mobile phase B: water (0.09% formic acid); linear gradient from 10% acetonitrile to 95% acetonitrile in 4.25 min, then 95% acetonitrile for a further 1.25 min; oven temperature 55° C.; flow rate: 2.0 ml/min. Mass detection is effected by means of an Agilend MSD system.

[3] = tested on: Ctenocephalides felis; assay: Ctenocephalides felis oral test (CTECFE); assay type: in vivo; conditions: application rate 100 ppm in citrated cattle blood; after 2 days
Procedure: Ctenocephalides felis—Oral Test (CTECFE) Solvent: dimethyl sulphoxide
To produce a suitable preparation of active compound, 10 mg of active compound are mixed with 0.5 ml of dimethyl sulphoxide. Dilution with citrated cattle blood gives the desired concentration.
About 20 unfed adult cat fleas (Ctenocephalides felis) are placed into a chamber which is closed at the top and bottom with gauze. A metal cylinder whose bottom end is closed with parafilm is placed onto the chamber. The cylinder contains the blood/active compound preparation, which can be imbibed by the fleas through the parafilm membrane.
After 2 days, the kill in % is determined. 100% means that all of the fleas have been killed; 0% means that none of the fleas have been killed.

[4] = tested on: Ctenocephalides felis; assay: Ctenocephalides felis in vitro contact test; assay type: in vivo; conditions: application rate 5 μg/cm^2; adult cat fleas; after 48 h
Procedure: Ctenocephalides felis—In Vitro Contact Test
(§2) For the coating of the test tubes, 9 mg of active compound are first dissolved in 1 ml of acetone p.a. and then diluted to the desired concentration with acetone p.a. 250 μl of the solution are distributed homogeneously on the inner walls and the base of a 25 ml test tube by turning and rocking on an orbital shaker (rocking rotation at 30 rpm for 2 h). With 900 ppm active compound solution and internal surface 44.7 cm^2, given homogeneous distribution, an area-based dose of 5 μg/cm^2 is achieved.
After the solvent has evaporated off, the tubes are populated with 5-10 adult cat fleas (Ctenocephalides felis), sealed with a perforated plastic lid and incubated in a horizontal position at room temperature and ambient humidity. After 48 h, efficacy is determined. To this end, the test tubes are stood upright and the fleas are knocked to the base of the tube. Fleas which remain motionless at the base or move in an uncoordinated manner are considered to be dead or moribund.
100% efficacy means that all the fleas were dead or moribund. 0% efficacy means that no fleas were harmed.

[5] = tested on: Lucilia cuprina; assay: Lucilia cuprina test (LUCICU); assay type: in vivo; conditions: application rate 100 ppm; L1 larvae; after 2 days
Procedure: Lucilia cuprina-Test (LUCICU) Solvent: dimethyl sulphoxide
(§3) To produce a suitable preparation of active compound, 10 mg of active compound are mixed with 0.5 ml of dimethyl sulphoxide, and the concentrate is diluted with water to the desired concentration.
About 20 L1 larvae of the Australian sheep blowfly (Lucilia cuprina) are transferred into a test vessel containing minced horsemeat and the active compound preparation of the desired concentration.
After 2 days, the kill in % is determined. 100% means that all the larvae have been killed; 0% means that no larvae have been killed.

[6] = tested on: Boophilus microplus; assay: Boophilus microplus injection test (BOOPMI Inj); assay type: in vivo; conditions: application rate 20 μg/animal; injection into abdomen
Procedure: Boophilus microplus—Injection Test (BOOPMI Inj) Solvent: dimethyl sulphoxide
To produce a suitable preparation of active compound, 10 mg of active compound are mixed with 0.5 ml of solvent and the concentrate is diluted with solvent to the desired concentration.
1 μl of the active compound solution is injected into the abdomen of 5 engorged adult female cattle ticks (Boophilus microplus). The animals are transferred into dishes and kept in a climate-controlled room.
The activity is assessed after the desired time by laying of fertile eggs. Eggs which are not visibly fertile are stored in a climate-controlled cabinet until the larvae hatch after about 42 days. An efficacy of 100% means that none of the ticks has laid any fertile eggs; 0% means that all the eggs are fertile.

[7] = tested on: Tetranychus urticae; assay: Tetranychus urticae spray test, OP-resistant (TETRUR); assay type: in vivo; conditions: application rate 100 g/ha; bean leaf discs; after 6 days
Procedure: Tetranychus urticae—Spray Test, OP-Resistant (TETRUR) Solvent: 78.0 parts by weight of acetone • • 1.5 parts by weight of dimethylformamide Emulsifier: alkylaryl polyglycol ether
as §1
Discs of bean leaves (Phaseolus vulgaris) infested by all stages of the greenhouse red spider mite (Tetranychus urticae) are sprayed with an active ingredient formulation of the desired concentration.
After 6 days, efficacy in % is determined. 100% means that all the spider mites have been killed; 0% means that no spider mites have been killed.

[8] = tested on: Boophilus microplus Parkhurst strain, SP-resistant; assay: Boophilus microplus dip test (BOOPMI Dip); assay type: in vivo; conditions: application rate 20 ppm; engorged adult female cattle ticks; after 7 days
Procedure: Boophilus microplus—Dip Test (BOOPMI Dip) Test animals: cattle ticks (Boophilus microplus) Parkhurst strain, SP-resistant Solvent: dimethyl sulphoxide
10 mg of active compound are dissolved in 0.5 ml of dimethyl sulphoxide. To produce a suitable formulation, the active compound solution is diluted with water to the concentration desired in each case.
This active compound preparation is pipetted into tubes. 8-10 engorged adult female cattle ticks (Boophilus microplus) are transferred into a further tube with holes. The tube is immersed into the active compound preparation, and all the ticks are completely wetted. After the liquid has run out, the ticks are transferred on filter discs into plastic dishes and stored in a climate-controlled room.
Efficacy is assessed after 7 days by laying of fertile eggs. Eggs which are not visibly fertile are stored in a climate-controlled cabinet until the larvae hatch after about 42 days. An efficacy of 100% means that none of the ticks has laid any fertile eggs; 0% means that all the eggs are fertile.

[9] = tested on: Phaedon cochleariae; assay: Phaedon cochleariae spray test (PHAECO); assay type: in vivo; conditions: application rate 100 g/ha; Chinese cabbage leaf discs; after 7 days
Procedure: Phaedon cochleariae—Spray Test (PHAECO) Solvent: 78.0 parts by weight of acetone • • 1.5 parts by weight of dimethylformamide Emulsifier: alkylaryl polyglycol ether
as §1
After 7 days, efficacy in % is determined. 100% means that all the beetle larvae have been killed; 0% means that no beetle larvae have been killed.

[10] = tested on: Musca domestica; assay: Musca domestica test (MUSCDO); assay type: in vivo; conditions: application rate 100 ppm; adult houseflies; after 2 days
Procedure: Musca domestica-Test (MUSCDO) Solvent: dimethyl sulphoxide
as §3
Vessels containing a sponge treated with sugar solution and the active compound preparation of the desired concentration are populated with 10 adult houseflies (Musca domestica).
After 2 days, the kill in % is determined. 100% means that all of the flies have been killed; 0% means that none of the flies have been killed.

[11] = tested on: Rhipicephalus sanguineus; assay: Rhipicephalus sanguineus in vitro contact test; assay type: in vivo; conditions: application rate 5 μg/cm^2; adult dog ticks; after 48 h
Procedure: Rhipicephalus sanguineus—In Vitro Contact Tests
as §2
After the solvent has evaporated off, the tubes are populated with 5-10 adult dog ticks (Rhipicephalus sanguineus), sealed with a perforated plastic lid and incubated in a horizontal position in the dark at room temperature and ambient humidity. After 48 h, efficacy is determined. To this end, the ticks are knocked to the floor of the tube and incubated on a hotplate at 45-50° C. for not more than 5 min. Ticks which remain motionless on the floor or move in such an uncoordinated manner that they are unable to deliberately avoid the heat by climbing upwards are considered to be dead or moribund.
An efficacy of 100% means that all the ticks were dead or moribund. 0% efficacy means that none of the ticks had been harmed.

[12] = tested on: Amblyomma hebraeum; assay: Amblyomma hebaraeum test (AMBYHE), tick nymph immersion; assay type: in vivo; conditions: application rate 20 ppm; tick nymphs; after 42 days
Procedure: Amblyomma hebaraeum Test (AMBYHE) Solvent: dimethyl sulphoxide
as §3
Tick nymphs (Amblyomma hebraeum) are placed into perforated plastic beakers and immersed in the desired concentration for one minute. The ticks are transferred on filter paper into a Petri dish and stored in a climate-controlled cabinet.
After 42 days, the kill in % is determined. 100% means that all of the ticks have been killed; 0% means that none of the ticks have been killed.

Cn1nc(C(F)(F)C(F)(F)F)c(C(F)(F)F)c1-c1cn(-c2ccc(Cl)c(C(=O)NC3CC3)c2)nn1 [Ig-1, 2-chloro-N-cyclopropyl-5-{4-[1-methyl-3-(pentafluoroethyl)-4-(trifluoromethyl)-1H-pyrazol-5-yl]-1H-1,2,3-triazol-1-yl}benzamide]
efficacy [1]: 100%
chromatographic logP [2]: 3.67
efficacy (kill) [3]: 100%
efficacy [4]: 100%
efficacy (kill) [5]: 100%
efficacy (laying of fertile eggs) [6]: 100%
efficacy [7]: 100%
efficacy (laying of fertile eggs) [8]: 100%
efficacy [9]: 100%
efficacy (kill) [10]: 100%
efficacy [11]: 100%
efficacy (kill) [12]: 100%
